According to publication PMC7954794, “Protein context shapes the specificity of SH3 domain-mediated interactions in vivo” (Nature Communications, 2021):

What was measured:
Abp1 (1xFLAG) = test: Western blot expression level of Abp1 SH3-swapped baits (Fig. S2A-B); type: cell-based, Saccharomyces cerevisiae; set-up: Flag (2 bands): unit not given here; conditions: sheet FigS2A-B; for Ratio Swap/WT Flag: Flag signal relative to Abp1 WT (Abp1-1 to Abp1-4 = 1); for Flag (2 bands): Western blot Flag signal (2 bands), Abp1 WT, SH3-deleted or SH3-swapped
Description: Precultures of yeast cells expressing baits fused with the DHFR F[1,2]-FLAG were grown overnight at 30 °C with agitation in synthetic complete medium. The next day, cells were expanded in synthetic complete medium to reach their exponential phase (OD600 of around 1.0), pelleted, and frozen at −80 °C. The equivalent of fifty OD600 of cells was resuspended in ice-cold yeast lysis buffer (10 mM Tris-HCl pH 7.4, 150 mM NaCl, 0.5 mM EDTA (Millipore Sigma), 1% Triton X-100 (Millipore Sigma), and one cOmplete Mini Protease Inhibitor Cocktail (Millipore Sigma) per 10 mL) with […] glass beads (Millipore Sigma) and disrupted at 4 °C by 10 cycles of 2 min vortexing and 2 min cooldown. The equivalent of […] of lysed cells was used for the immunoprecipitation of the bait proteins using FLAG-M2 agarose beads (Millipore Sigma). The beads were incubated with the cell lysates for 120 min at 4 °C with a slow rotation, followed by three washes with the yeast lysis buffer.
Protein extracts and affinity-purified baits from yeast and human lysed cells were migrated on 10% polyacrylamide gels. The separated proteins were then transferred to nitrocellulose membranes. Validation of correct protein loading was done with ponceau staining of the membranes. Before the primary antibody incubations, membranes were blocked in 5% milk. Protein signals were detected on an Amersham Imager 600RGB (GE Healthcare) following the incubation of the membranes with the appropriate HRP-conjugated secondary antibodies and the Clarity Western ECL Substrate (Bio-Rad). The antibodies used in this study are M2-HRP (A8592, Sigma, 1/50,000), rabbit anti-FLAG (F7425, Sigma, 1/1000), PAK (SC-881, Santa Cruz, 1/200), p130cas/BCAR1 (SC-860, Santa Cruz, 1/200), actin (Cell Signaling Technology, 1/2000), anti-mouse HRP (Cell Signaling Technology, 1/10,000) and anti-rabbit HRP (Cell Signaling Technology, 1/10,000). The quantification of the WB signals was performed with the Amersham Imager 600 analysis software (GE Healthcare).

Abp1 PPIs = test: DHFR-PCA of Abp1 SH3-swapped baits (Fig. 2B-D, S2C, S2F); type: cell-based, Saccharomyces cerevisiae; conditions: number of interactions of Abp1 carrying the named SH3; sheet FigS2A-B
Excerpt: Having determined that multiple PPIs require SH3s, we asked whether the latter establish PPI specificity independently from their host proteins by swapping domains (Fig. 2A). Using the second round of genome editing, we individually replaced Abp1 SH3 with the 27 yeast SH3s and 3 human Abp1 orthologs’ SH3s (CTTN, HCLS1, and DBNL, Fig. 2B). The reintroduction of its own SH3 (Abp1SH3 in Abp1) reconstitutes almost perfectly Abp1’s interaction profile (Kendall’s τ = 0.93, Fig. 2B). […] No homologous SH3 domain fully re-establishes the normal Abp1 PPI profile (Fig. 2B and Supplementary Fig. 2C). However, we observe a significant correlation (cophenetic correlation = 0.20, p value = 0.005, Fig. 2C) between the similarity of PPI profiles (Fig. 2B) and the sequence similarity of the SH3s. […] Nonetheless, a subset of SH3-dependent PPIs is only observed with the endogenous domain. For instance, Hua2 and App1, both well-characterized partners of Abp1[14],[18],[19], are only detected when Abp1 contains its own SH3 (WT or swapped via editing). A given SH3 may therefore not be fully replaceable with other paralogous or orthologous domains. This pattern is confirmed by cellular growth phenotypic analyses (Supplementary Fig. 2D, E). PPIs, SH3 sequence similarity, and growth profiles under stress conditions are correlated (Supplementary Fig. 2D, E). This relationship is particularly clear when analyzing growth on media supplemented with hygromycin.
The stuffing of YSC84 SH3 rendered the strain sterile and was therefore not used for this study as the assays require crosses. For genes containing two SH3s (BZZ1 and BEM1), a combination of this first stuffer with a second one ([…]) coding for a highly similar linker ([…]) was used, which allowed targeting each SH3 position independently. The two N-terminal domains of SLA1, which are separated by six nucleotides, were stuffed by a single stuffer. Cells containing pCAS were selected via the G418 resistance cassette from the plasmid on YPD plates (YPD + NAT 100 μg/ml (DHFR F[1,2] selection) + G418 200 µg/mL (Bioshop Canada)). Colonies were randomly selected and grown in YPD media without G418 to allow plasmid loss. The correct insertion of the stuffer was validated by PCR and Sanger sequencing. The SH3-swapped, -shuffled, and -mutated strains were constructed following a second CRISPR–Cas9 editing step with the same procedures. The stuffer sequences were targeted by specific gRNAs (one gRNA per stuffer) and replaced by PCR amplified specific SH3 (with 40 bp homology arms) or libraries of mutated SH3 domains for Deep Mutational Scanning (DMS) with 78 bp flanking homology regions. Validation of the SH3 domain insertions was done as we previously described except for DMS libraries (see below).
The overall DHFR-PCA pipeline is based on Tarassov et al.[43] and the procedures have also been published as a visualized protocol. The screens were performed with robotically manipulated pin tools (BM5-SC1, S&P Robotics Inc.). First, the preys were cherry-picked from 96-well plates to omnitrays in a 384 format on YPD + HPH solid media. Plates were then combined into the 1536 format on YPD + HPH. The array was constituted of 575 preys previously shown to interact physically with at least one SH3-containing protein as reported in BioGRID V3.4.16 along with 40 negative controls. The prey array comprised a border of control strains of two rows and two columns corresponding to the PPI between LSM8-DHFR F[1,2] and CDC39-DHFR F[3]. This double border was used to remove border effects. Preys are present in duplicate at a randomized position in the 1536 array (except for YAL041W which is present four times per array). Baits were crossed with two prey plates, resulting in four independent bait–prey tests for each PPI. Baits were grown in liquid YPD + NAT and then transferred on solid YPD + NAT omnitrays. They were then replicated on YPD + NAT omnitrays in 1536 array format. […]

[1] = test system: NCK2 interactome in HEK293T cells; test: AP-SWATH (DIA) quantitative MS of NCK2 PPIs (Fig. 5A-C); type: cell-based, human; conditions: SAINT FDR < 1%; duplicates
Description: Human embryonic kidney 293T cells (HEK293T, ATCC:CRL-3216) were grown in Dulbecco’s Modified Eagle’s medium (DMEM) high glucose complemented with 10% fetal calf serum under 5% CO2 at 37 °C. Transient expression of cDNA in cells was performed by polyethylenimine (PEI, Millipore Sigma) transfections. Enrichment of phospho-dependent PPIs was done by treating HEK293T cells with the tyrosine phosphatase inhibitor pervanadate, freshly made by mixing 4 mM orthovanadate (Millipore Sigma) with 30% H2O2 (Millipore Sigma) in water in a 200:1 volume ratio. […]
NCK2 baits purified on beads from HEK293T cells (as previously described in the methods) were washed two additional times in 20 mM Tris-HCl pH 7.4 and eluted in 50 mM phosphoric acid. […] These were analyzed alongside four negative controls corresponding to transiently expressed 3×FLAG-GFP purified from HEK293T cells (as described for NCK2 constructs). […] The equivalent of one-third of each sample was used for the SWATH-libraries generation and another third for SWATH quantification. […] We validated that the same quantity of baits was used for each NCK2 chimeras by quantifying NCK2 peptides in each sample (see Supplementary Data 3). […]

BOI2 = test: DHFR-PCA on solid medium, bait BOI2 (Fig. 1B); type: cell-based, Saccharomyces cerevisiae; conditions: bait BOI2, label = prey; 3-8 replicates
Excerpt: (§1) Supplement 41467_2021_21873_MOESM8_ESM.xlsx, sheet "Fig1B" | column: medsize; medrep; Ratio; Score

BUD14 = test: DHFR-PCA on solid medium, bait BUD14 (Fig. 1B); type: cell-based, Saccharomyces cerevisiae; conditions: bait BUD14, label = prey; 4 replicates
Excerpt: as §1

ABP1 = test: DHFR-PCA on solid medium, bait ABP1 (Fig. 1B); type: cell-based, Saccharomyces cerevisiae; conditions: bait ABP1, label = prey; 2-4 replicates
Excerpt: as §1

BZZ1-1 = test: DHFR-PCA on solid medium, bait BZZ1-1 (Fig. 1B); type: cell-based, Saccharomyces cerevisiae; conditions: bait BZZ1-1, label = prey; 4 replicates
Excerpt: Supplement 41467_2021_21873_MOESM8_ESM.xlsx, sheet "Fig1B" | column: medsize; medrep; Score

BOI1 = test: DHFR-PCA on solid medium, bait BOI1 (Fig. 1B); type: cell-based, Saccharomyces cerevisiae; conditions: bait BOI1, label = prey
Excerpt: as §1

BEM1-1 = test: DHFR-PCA on solid medium, bait BEM1-1 (Fig. 1B); type: cell-based, Saccharomyces cerevisiae; conditions: bait BEM1-1, label = prey; 2-8 replicates
Excerpt: as §1

[2] = test system: 575 putative partners (preys) of 22 WT SH3-containing proteins; test: DHFR-PCA on solid medium, WT and SH3-deleted baits (Fig. 1B); type: cell-based, Saccharomyces cerevisiae; set-up: key to Score: 0: SH3-independent; 1: SH3-dependent PPIs; 2: SH3-inhibited PPIs
Procedure, shortened: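 In S. cerevisiae, 22 SH3-containing baits fused genomically to DHFR F[1,2], either WT or with each SH3 replaced via CRISPR by a poly-Gly/Ser linker, screened against 575 DHFR F[3] preys plus 40 negative controls in 1536 arrays, preys duplicated at randomized positions.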

BEM1-2 = test: DHFR-PCA on solid medium, bait BEM1-2 (Fig. 1B); type: cell-based, Saccharomyces cerevisiae; conditions: bait BEM1-2, label = prey; 2-8 replicates
Excerpt: as §1

BBC1 = test: DHFR-PCA on solid medium, bait BBC1 (Fig. 1B); type: cell-based, Saccharomyces cerevisiae; conditions: bait BBC1, label = prey; 2-4 replicates
Excerpt: as §1

Substance: Cdc25
- Ratio Swap/WT Flag (Abp1 (1xFLAG)): 0.6887
- Flag (2 bands) (Abp1 (1xFLAG)): 152280
- Interactions in Abp1 (Abp1 PPIs): 27

Substance: Rvs167
- Ratio Swap/WT Flag (Abp1 (1xFLAG)): 0.1645
- Flag (2 bands) (Abp1 (1xFLAG)): 38158
- Interactions in Abp1 (Abp1 PPIs): 91

Substance: WT NCK2: wild-type NCK2 adaptor (mouse cDNA) with three SH3s and one SH2
- High confidence NCK2 PPIs [1]: 56 PPIs

Substance: YDL229W
- medrep (log2 median colony size normalized to plate background, PCA score) (BOI2): 3.977
- medrep (log2 median colony size normalized to plate background, PCA score) (BUD14): 3.548
- medrep (log2 median colony size normalized to plate background, PCA score) (ABP1): 5.461
- medrep (log2 median colony size normalized to plate background, PCA score) (BZZ1-1): 4.468
- medrep (log2 median colony size normalized to plate background, PCA score) (BOI1; 3-8 replicates): 2.407
- Ratio (SH3-deleted/WT medrep) (BOI1; only significant differences showed, PPIs completely lost have a ratio of 0.1 and the gained PPIs 2.5): 2.5
- medrep (log2 median colony size normalized to plate background, PCA score) (BEM1-1): 3.594
- medrep (log2 median colony size normalized to plate background, PCA score) ([2]; bait SLA1-3, DHFR-PCA, label = prey, Replicates 4 (2 for YCR009C, YDR388W, YIL033C)): 5.405
- Score ([2]; bait SLA1-3, label = prey): 0
- medrep (log2 median colony size normalized to plate background, PCA score) (BEM1-2): 3.594
- medrep (log2 median colony size normalized to plate background, PCA score) (BBC1): 5.103
